Test results reported in ChEMBL document CHEMBL1201862, “PubChem BioAssay data set” (2004).
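Step 1: Grow cells in 96-well plates. Step 2: Expose to compound for 48 hours at 5 concentrations. Step 3: Interpolate endpoints linearly; if unreached, use highest concentration. At the GI50, growth is halved.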 Calls of active or inactive are those of the source. Cut-off read from the data, not from the text of the source: active = GI50 up to about 1.1 µM and inactive = higher.

Experiments:
Assay in all cases: NCI anticancer screen, dose series, 48 h
HCC 2998 = system: HCC 2998
HT-29 = system: HT-29
SN12C = system: SN12C
ACHN = system: ACHN
SF-295 = system: SF-295
K562 = system: K562
UACC-62 = system: UACC-62
OVCAR-8 = system: OVCAR-8
SNB-19 = system: SNB-19
NCI-H226 = system: NCI-H226
MOLT-4 = system: MOLT-4
CCRF-CEM = system: CCRF-CEM
SNB-78 = system: SNB-78
U-251 = system: U-251
HCT-15 = system: HCT-15
UACC-257 = system: UACC-257
A498 = system: A498
OVCAR-5 = system: OVCAR-5
KM-20L2 = system: KM-20L2
NCI-H23 = system: NCI-H23
TK-10 = system: TK-10
HL-60 = system: HL-60
UO-31 = system: UO-31
LOX IMVI = system: LOX IMVI
HCT-116 = system: HCT-116
Malme-3M = system: Malme-3M
LXFL 529 = system: LXFL 529
EKVX = system: EKVX
DMS-114 = system: DMS-114
M19-MEL = system: M19-MEL
KM12 = system: KM12
SK-OV-3 = system: SK-OV-3
DLD-1 = system: DLD-1
DMS-273 = system: DMS-273
OVCAR-3 = system: OVCAR-3
HOP-62 = system: HOP-62
SW-620 = system: SW-620
SK-MEL-28 = system: SK-MEL-28
SK-MEL-5 = system: SK-MEL-5
SK-MEL-2 = system: SK-MEL-2
A549 = system: A549
CAKI-1 = system: CAKI-1
786-0 = system: 786-0
RXF 393 = system: RXF 393
SF-539 = system: SF-539
IGROV-1 = system: IGROV-1
NCI-H522 = system: NCI-H522
XF498 = system: XF498
NCI-H460 = system: NCI-H460
SF-268 = system: SF-268
M14 = system: M14
RPMI-8226 = system: RPMI-8226
SNB-75 = system: SNB-75
COLO 205 = system: COLO 205
OVCAR-4 = system: OVCAR-4
HOP-92 = system: HOP-92

CC(C)(C)NCC(COc1ccc([N+](=O)[O-])cc1)OP(c1ccccc1)c1ccccc1 (configuration not stated)
GI50 (HCC 2998): 42.4 µM (inactive)
GI50 (HT-29): 27.7 µM (inactive)
GI50 (SN12C): 36.6 µM (inactive)
GI50 (ACHN): 38.7 µM (inactive)
GI50 (SF-295): 23.7 µM (inactive)
GI50 (K562): 32.7 µM (inactive)
GI50 (UACC-62): 44.4 µM (inactive)
GI50 (OVCAR-8): 34.8 µM (inactive)
GI50 (SNB-19): 38.7 µM (inactive)
GI50 (NCI-H226): 29 µM (inactive)
GI50 (MOLT-4): 18.9 µM (inactive)
GI50 (CCRF-CEM): 27.8 µM (inactive)
GI50 (SNB-78): 25.9 µM (inactive)
GI50 (U-251): 41.5 µM (inactive)
GI50 (HCT-15): 37.8 µM
GI50 (UACC-257): 44 µM (inactive)
GI50 (A498): 44.7 µM (inactive)
GI50 (OVCAR-5): 82.4 µM (inactive)
GI50 (KM-20L2): 36.4 µM (inactive)
GI50 (NCI-H23): 44.9 µM (inactive)
GI50 (TK-10): 43.9 µM (inactive)
GI50 (HL-60): 19.7 µM (inactive)
GI50 (UO-31): 20.6 µM (inactive)
GI50 (LOX IMVI): 11 µM (inactive)
GI50 (HCT-116): 33 µM (inactive)
GI50 (Malme-3M): 25 µM (inactive)
GI50 (LXFL 529): 19.3 µM (inactive)
GI50 (EKVX): 53.1 µM (inactive)
GI50 (DMS-114): 23 µM (inactive)
GI50 (M19-MEL): 40.6 µM (inactive)
GI50 (KM12): 29.9 µM (inactive)
GI50 (SK-OV-3): 60.5 µM (inactive)
GI50 (DLD-1): 27.8 µM (inactive)
GI50 (DMS-273): 29.8 µM (inactive)
GI50 (OVCAR-3): 34 µM (inactive)
GI50 (HOP-62): > 100 µM (inactive)
GI50 (SW-620): 47.4 µM (inactive)
GI50 (SK-MEL-28): 55 µM (inactive)
GI50 (SK-MEL-5): 18.8 µM (inactive)
GI50 (SK-MEL-2): 35.4 µM (inactive)
GI50 (A549): 40.6 µM (inactive)
GI50 (CAKI-1): 28.8 µM (inactive)
GI50 (786-0): 29 µM (inactive)
GI50 (RXF 393): 30.3 µM (inactive)
GI50 (SF-539): 53.1 µM (inactive)
GI50 (IGROV-1): 53.3 µM (inactive)
GI50 (NCI-H522): 19.3 µM (inactive)
GI50 (XF498): 22.5 µM (inactive)
GI50 (NCI-H460): 35.8 µM (inactive)
GI50 (SF-268): 49.1 µM (inactive)
GI50 (M14): 26.8 µM (inactive)
GI50 (RPMI-8226): 13.5 µM (inactive)
GI50 (SNB-75): 33.7 µM (inactive)
GI50 (COLO 205): 31.4 µM (inactive)

CNC(C)(C)Cc1ccc(Cl)cc1
GI50 (HCC 2998): > 100 µM (inactive)
GI50 (HT-29): > 100 µM (inactive)
GI50 (SN12C): > 100 µM (inactive)
GI50 (ACHN): > 100 µM (inactive)
GI50 (SF-295): > 100 µM (inactive)
GI50 (K562): > 100 µM (inactive)
GI50 (UACC-62): > 100 µM (inactive)
GI50 (OVCAR-8): > 100 µM (inactive)
GI50 (MOLT-4): > 100 µM (inactive)
GI50 (CCRF-CEM): > 100 µM (inactive)
GI50 (U-251): > 100 µM (inactive)
GI50 (UACC-257): > 100 µM (inactive)
GI50 (A498): > 100 µM (inactive)
GI50 (KM-20L2): > 100 µM (inactive)
GI50 (OVCAR-4): > 100 µM (inactive)
GI50 (NCI-H23): > 100 µM (inactive)
GI50 (TK-10): > 100 µM (inactive)
GI50 (LOX IMVI): > 100 µM (inactive)
GI50 (HCT-116): > 100 µM (inactive)
GI50 (Malme-3M): > 100 µM (inactive)
GI50 (LXFL 529): > 100 µM (inactive)
GI50 (EKVX): > 100 µM (inactive)
GI50 (DMS-114): > 100 µM (inactive)
GI50 (M19-MEL): > 100 µM (inactive)
GI50 (KM12): > 100 µM (inactive)
GI50 (SK-OV-3): > 100 µM (inactive)
GI50 (DLD-1): > 100 µM (inactive)
GI50 (OVCAR-3): > 100 µM (inactive)
GI50 (HOP-62): > 100 µM (inactive)
GI50 (SW-620): > 100 µM (inactive)
GI50 (SK-MEL-28): > 100 µM (inactive)
GI50 (SK-MEL-5): > 100 µM (inactive)
GI50 (SK-MEL-2): > 100 µM (inactive)
GI50 (A549): > 100 µM (inactive)
GI50 (CAKI-1): > 100 µM (inactive)
GI50 (786-0): > 100 µM (inactive)
GI50 (RXF 393): > 100 µM (inactive)
GI50 (SF-539): > 100 µM (inactive)
GI50 (IGROV-1): > 100 µM (inactive)
GI50 (NCI-H522): > 100 µM (inactive)
GI50 (XF498): 34.7 µM (inactive)
GI50 (NCI-H460): > 100 µM (inactive)
GI50 (SF-268): > 100 µM (inactive)
GI50 (M14): > 100 µM (inactive)
GI50 (RPMI-8226): > 100 µM (inactive)
GI50 (SNB-75): > 100 µM (inactive)
GI50 (COLO 205): > 100 µM (inactive)

Cc1ccc(C(=O)Nc2ccccc2)cc1/N=N/N(C)C
GI50 (HCC 2998): > 100 µM (inactive)
GI50 (HT-29): > 100 µM (inactive)
GI50 (SN12C): > 100 µM (inactive)
GI50 (ACHN): > 100 µM (inactive)
GI50 (SF-295): > 100 µM (inactive)
GI50 (UACC-62): > 100 µM (inactive)
GI50 (OVCAR-8): > 100 µM (inactive)
GI50 (SNB-19): > 100 µM (inactive)
GI50 (SNB-78): > 100 µM (inactive)
GI50 (U-251): > 100 µM (inactive)
GI50 (HCT-15): > 100 µM
GI50 (UACC-257): > 100 µM (inactive)
GI50 (KM-20L2): > 10 µM (inactive)
GI50 (OVCAR-4): > 100 µM (inactive)
GI50 (NCI-H23): > 100 µM (inactive)
GI50 (TK-10): > 100 µM (inactive)
GI50 (UO-31): > 100 µM (inactive)
GI50 (LOX IMVI): > 100 µM (inactive)
GI50 (HCT-116): > 100 µM (inactive)
GI50 (LXFL 529): > 100 µM (inactive)
GI50 (EKVX): > 100 µM (inactive)
GI50 (M19-MEL): > 100 µM (inactive)
GI50 (KM12): > 100 µM (inactive)
GI50 (DLD-1): > 100 µM (inactive)
GI50 (DMS-273): > 100 µM (inactive)
GI50 (OVCAR-3): > 100 µM (inactive)
GI50 (HOP-62): > 100 µM (inactive)
GI50 (SW-620): > 100 µM (inactive)
GI50 (SK-MEL-28): > 100 µM (inactive)
GI50 (HOP-92): > 100 µM (inactive)
GI50 (SK-MEL-5): > 100 µM (inactive)
GI50 (SK-MEL-2): > 100 µM (inactive)
GI50 (A549): > 100 µM (inactive)
GI50 (CAKI-1): > 100 µM (inactive)
GI50 (786-0): 21 µM (inactive)
GI50 (SF-539): > 100 µM (inactive)
GI50 (IGROV-1): > 100 µM (inactive)
GI50 (NCI-H522): 35.2 µM (inactive)
GI50 (NCI-H460): > 100 µM (inactive)
GI50 (SF-268): > 100 µM (inactive)
GI50 (M14): > 100 µM (inactive)
